Reference: US20220280472A1, “TREATMENT OF PULMONARY FIBROSIS USING INHIBITORS OF NEU1 SIALIDASE” (University of Maryland, Baltimore, priority 2019, published 2022)
“Also recorded” adds a separate entry of the source.

Legend:
[1] = tested on: bleomycin-challenged C57BL/6 mice; experiment: Bleomycin-induced pulmonary fibrosis model; type: in vivo, mouse; details: for BALF total cell counts, lymphocytes, and neutrophils / lung collagen mRNA (collagen 1A2, collagen 3A1; qRT-PCR) / lung collagen protein (hydroxyproline-based QuickZyme assay): 15 mg/kg i.p. daily days 8-14, day 14, vs bleomycin alone; for total body weight: 15 mg/kg i.p. daily on days 8-14 after bleomycin, by day 14
Method: Wild-type female C57BL/6 mice aged 10-12 weeks and weighing 18-20 g (The Jackson Laboratory, Bar Harbor, Me.) were treated in accordance with a research protocol approved by the University of Maryland Institutional Animal Care and Use Committee. Animals were maintained in sterile microisolator cages with sterile rodent feed and water in the Baltimore VA Medical Center Research Animal Facility approved by the Association for Assessment and Accreditation of Laboratory Animal Care. To model pulmonary inflammation and fibrosis, a single dose of 0.075 U of bleomycin (BLM)(Sigma-Aldrich, St. Louis, Mo.) diluted in 50 μl of sterile phosphate-buffered saline (PBS) was intratracheally (i.t.) delivered to mouse lungs on day 0. Briefly, a minor anterior midline neck incision was made to reveal the trachea, and a MicroSprayer® (Penn-Century, Wyndmoor, Philadelphia, Pa.) was inserted i.t., and the bleomycin or sterile PBS alone instilled. Mice were serially weighed, and on days 8-14, daily administered intraperitoneally (i. p.) with 15 mg/kg of 2DN, or […], or III-32B5, or vehicle alone. On day 14, mice were euthanized by CO2 asphyxiation followed by cervical dislocation. Immediately postmortem, bronchoalveolar lavage fluid (BALF)s and lungs were harvested. BALF samples were collected and analyzed. Installation and withdrawal of 1 ml of PBS twice via an 18-gauge blunt-end needle secured in the trachea were performed in each animal The 2 aliquots of BALF were pooled, centrifuged, and total and differential cell counts performed. […] Total cellular RNA was extracted from murine lung tissue. RNA purity was established with the A260/A280 absorption ratio (>1.90). Total RNA (1.0 μg) was treated with DNase I (Invitrogen) for 15 min and reverse transcribed using avian myeloblastosis virus reverse transcriptase and poly(T) primer (Promega). The resulting cDNA was quantified by real time quantitative reverse transcription-polymerase chain reaction (qRT-PCR) using SYBR Green PCR Master Mix and ABI Prism 7900HT cycler. […] Measurement of Total Lung Collagen: Collagen content was measured in lung tissue based on detection of hydroxyproline, using the Total Collagen Assay kit from QuickZyme (Leiden, The Netherlands). Briefly, following hydrolysis of 50 mg lung tissue in […] of 6M HCl for 20 h at 95° C., the hydrolysate was diluted 10-fold with 4M HCl and measured against serial dilutions of collagen standard; the results were expressed as μg collagen per mg wet lung tissue. Mice challenged I.T. with bleomycin were serially weighed, and on days 8-14, daily administered i.p. 2DN or vehicle alone. On day 14, mice were sacrificed, and BALF and lungs harvested. The BALF was processed for total and differential cell counts, and lung tissues were collagenase-digested for lymphocyte counts and flow cytometry, processed for qRT-PCR for collagen mRNA expression, or homogenized for hydroxyproline-based assays to quantify collagen protein (FIG. 1C, 1D, 1E). In all bleomycin-challenged mice, total body weight decreased through days 1-7 (FIG. 1B). While the saline-injected, bleomycin-challenged mice continued to lose body weight through the 14-day study period, on days ≥9, the 2DN-treated, bleomycin-administered mice maintained and even increased body weight. […] On day 14, total and differential BALF cell counts were performed (FIG. 1C). In the PBS-injected, bleomycin-challenged mice, total cell counts, macrophages, lymphocytes, and neutrophils each were increased compared to BALF cell counts for the simultaneous saline controls. The addition of broad-spectrum NEU inhibition with 2DN reversed the increased in total cell counts, lymphocytes, and neutrophils, each compared to counts in the PBS-injected, bleomycin-challenged mice. In these same mice, lung homogenates were processed for qRT-PCR using primers for collagen 1A2 and collagen 3A1 to quantify their mRNA expression (FIG. 1D). […]

[2] = tested on: HLFs (human lung fibroblasts); details: cited from earlier work
[3] = tested on: HPMECs (human primary pulmonary microvascular endothelial cells); details: cited from earlier work
[4] = tested on: SAECs (human primary small airway epithelial cells); details: cited from earlier work
[5] = tested on: total lung sialidase (NEU) activity; experiment: Total sialidase (NEU) activity for 4-MU-NANA in mouse lung after in vivo dosing; set-up: lung sialidase activity: dose or concentration left out as unconfirmed; details: for total lung sialidase activity: 15 mg/kg ip, harvested 18 h later
Method: Wild-type female C57BL/6 mice aged 10-12 weeks and weighing 18-20 g (The Jackson Laboratory, Bar Harbor, Me.) were treated in accordance with a research protocol approved by the University of Maryland Institutional Animal Care and Use Committee. Animals were maintained in sterile microisolator cages with sterile rodent feed and water in the Baltimore VA Medical Center Research Animal Facility approved by the Association for Assessment and Accreditation of Laboratory Animal Care. To model pulmonary inflammation and fibrosis, a single dose of 0.075 U of bleomycin (BLM)(Sigma-Aldrich, St. Louis, Mo.) diluted in 50 μl of sterile phosphate-buffered saline (PBS) was intratracheally (i.t.) delivered to mouse lungs on day 0. Briefly, a minor anterior midline neck incision was made to reveal the trachea, and a MicroSprayer® (Penn-Century, Wyndmoor, Philadelphia, Pa.) was inserted i.t., and the bleomycin or sterile PBS alone instilled. […] On day 14, mice were euthanized by CO2 asphyxiation followed by cervical dislocation. Immediately postmortem, bronchoalveolar lavage fluid (BALF)s and lungs were harvested. BALF samples were collected and analyzed. Installation and withdrawal of 1 ml of PBS twice via an 18-gauge blunt-end needle secured in the trachea were performed in each animal The 2 aliquots of BALF were pooled, centrifuged, and total and differential cell counts performed. The lungs were processed for qRT-PCR, to measure levels for NEU 1-4, PPCA, collagen 1α2, and collagen 3α1transcripts, quantitative immunoblotting for NEU1-4 and PPCA proteins, and determination of hydroxyproline as a measure of total collagen. In selected experiments, lung tissue was processed for assays of total sialidase activity for fluorogenic substrate, 2′-(4-methylumbelliferyl)-α-D-N-acetylneuraminic acid (4-MU-NANA) and peanut agglutinin (PNA) lectin blotting as an indicator of desialylation.
Fluorometric Assay for Sialidase Activity: Lungs harvested from mice pretreated with one of three sialidase inhibitors or saline alone were weighed, homogenized, centrifuged, and the supernatants collected. These samples and SAECs, HPMECs, and NHLFs preincubated with increasing concentrations of the NEU1-selective NEU inhibitor, III-32B5 were suspended in 200μλ of 500 mM sodium acetate, pH 4.4 containing 0.1% Triton X-100, and a protease inhibitor mixture (Roche Applied Science), and then incubated for 1 h at 37° C. with 25 μl of 2.0 mM 2′-(4-methylumbelliferyl)-α-D-N-acetylneuraminic acid (4-MU-NANA), mixing the tubes every 15 min. The NEU reaction was terminated by addition of 133 mM glycine, pH 10.3, 60 mM NaCl, and 0,083 M […] after which the fluorescence intensity was measured with a Bio-Rad fluorometer (excitation at 355 nm; emission at 460 nm). […]

[6] = tested on: BALF cell sialidase activity; experiment: Total BALF cell sialidase activity after in vivo dosing; set-up: species or system mouse; details: 15 mg/kg ip, re-injected after 24 h, harvested 18 h later; vs saline
Method: Fluorometric Assay for Sialidase Activity: Lungs harvested from mice pretreated with one of three sialidase inhibitors or saline alone were weighed, homogenized, centrifuged, and the supernatants collected. These samples and SAECs, HPMECs, and NHLFs preincubated with increasing concentrations of the NEU1-selective NEU inhibitor, III-32B5 were suspended in 200μλ of 500 mM sodium acetate, pH 4.4 containing 0.1% Triton X-100, and a protease inhibitor mixture (Roche Applied Science), and then incubated for 1 h at 37° C. with 25 μl of 2.0 mM 2′-(4-methylumbelliferyl)-α-D-N-acetylneuraminic acid (4-MU-NANA), mixing the tubes every 15 min. The NEU reaction was terminated by addition of 133 mM glycine, pH 10.3, 60 mM NaCl, and 0,083 M […] after which the fluorescence intensity was measured with a Bio-Rad fluorometer (excitation at 355 nm; emission at 460 nm).
After 24 h, the mice were administered these same injections, and 18 h later, were euthanized and their BALFs and lungs harvested. The lungs were processed for total protein levels and total sialidase activity. […] The BALFs from these same mice were processed for cell counts and sialidase activity. […] These findings establish the ability of each of 2 NEU1-selective pharmacologic inhibitors to profoundly reduce total lung and BALF cell sialidase activity in vivo. The NEU1 inhibitor can comprise C1-methyl esters of the compounds.

[7] = tested on: NEUs 2-4; details: cited from earlier work
[8] = tested on: bleomycin-challenged C57BL/6 mice; experiment: Bleomycin-induced pulmonary fibrosis model; type: in vivo, mouse; details: 15 mg/kg; FIG. 6A
[9] = tested on: HPMECs (human primary pulmonary microvascular endothelial cells); experiment: Fluorometric sialidase activity assay (4-MU-NANA) in HPMECs; type: cell-based; details: increasing concentrations; 1.0×10^6 cells/reaction
Method: (§1) Human Lung Cell Cultures: Human primary small airway epithelial cell (SAEC)s isolated from the distal portion of the bronchioles and human primary pulmonary microvascular endothelial cell (HPMEC)s were purchased from Promocell (Heidelberg, Germany) SAECs were cultured in predefined small airway growth medium containing hydrocortisone, human epidermal growth factor, epinephrine, transferrin, insulin, retinoic acid, triiodothyronine, and fatty acid-free bovine serum albumin. Only SAEC passaged 2-4 were studied. HPMECs were cultured in endothelial cell growth medium (MV-2, PromoCell) containing growth medium supplement mix (PromoCell). Only HPMEC passages 4-7 were studied. Primary normal human lung fibroblast (NHLF)s were either isolated from normal lungs initially harvested from lung […] but ultimately not used in a study approved by the Institutional Review Board at the University of Maryland, or purchased from Lonza (Walkersville, Md.). […]
(§2) Fluorometric Assay for Sialidase Activity: Lungs harvested from mice pretreated with one of three sialidase inhibitors or saline alone were weighed, homogenized, centrifuged, and the supernatants collected. […] The NEU reaction was terminated by addition of 133 mM glycine, pH 10.3, 60 mM NaCl, and 0,083 M […] after which the fluorescence intensity was measured with a Bio-Rad fluorometer (excitation at 355 nm; emission at 460 nm). […]

[10] = tested on: HLFs (human lung fibroblasts); experiment: Fluorometric sialidase activity assay (4-MU-NANA) in HLFs; type: cell-based; details: increasing concentrations; 1.0×10^6 cells/reaction
Method: as §1, §2

[11] = tested on: SAECs (human primary small airway epithelial cells); experiment: Fluorometric sialidase activity assay (4-MU-NANA) in SAECs; type: cell-based; details: increasing concentrations; 1.0×10^6 cells/reaction
Method: as §1, §2

[12] = re-injected after 24 h, vs saline

## CC(=O)N[C@H]1[C@H]([C@H](O)[C@H](O)CO)OC(C(=O)O)C[C@@H]1O (stereo partly drawn) [2DN, 2-deoxy-N-acetyneuraminic acid, reference compound]
[1]
  BALF total cell counts, lymphocytes, and neutrophils: reversed
  lung collagen mRNA (collagen 1A2, collagen 3A1; qRT-PCR): reduced
  lung collagen protein (hydroxyproline-based QuickZyme assay): reversed
  total body weight: returned to their pretreatment baseline
[2]
  sialidase activity in human lung fibroblasts, previously reported: inhibition
[3]
  sialidase activity in human lung microvascular endothelia, previously reported: inhibition
[4]
  sialidase activity in human airway epithelia, previously reported: inhibition
[5]; 15 mg/kg i.p., re-injected after 24 h, lungs harvested 18 h later, vs saline
  reduction of total NEU activity in lung: at least 8 fold

## CCCCC(=O)NC[C@H](O)[C@H](O)[C@@H]1OC(C(=O)O)=C[C@H](O)[C@H]1NC(C)=O [C9-BADANA]
[6]
  total BALF cell sialidase activity: reduced
[1]
  BALF total cell counts, lymphocytes, and neutrophils: reversed
  lung collagen mRNA (collagen 1A2, collagen 3A1; qRT-PCR): protected against
  lung collagen protein (hydroxyproline-based QuickZyme assay): protected against; also recorded: significantly decreased
  total body weight: returning to their pretreatment baselines; also recorded: counteracted
[1]; mice receiving both BLM and C9-BADANA, BLM alone 13.4±2.1 μg/mg
  14-day collagen deposition, mean value: 8.6 ± 1.7 µg/mg
[2]
  sialidase activity in human lung fibroblasts, previously reported: inhibition
[3]
  sialidase activity in human lung microvascular endothelia, previously reported: inhibition
[4]
  sialidase activity in human airway epithelia, previously reported: inhibition
[7]
  IC50: > 1 mM
[8]
  lung collagen deposition: dramatically reduces
[5]
  lung sialidase activity: dramatically reduces
[5]; [12]
  total lung sialidase activity: reduced

## CCCCCC(=O)N[C@H]1[C@H]([C@@H](O)[C@@H](O)CNC(C)=O)OC(C(=O)O)=C[C@@H]1O [III-32B5, C5-hexanamido-C9-acetamido-DANA]
[6]
  total BALF cell sialidase activity: reduced
[1]
  BALF total cell counts, lymphocytes, and neutrophils: reversed
  lung collagen mRNA (collagen 1A2, collagen 3A1; qRT-PCR): protected against
  lung collagen protein (hydroxyproline-based QuickZyme assay): protected against; also recorded: significantly decreased
  total body weight: returning to their pretreatment baselines; also recorded: counteracted
[9]
  sialidase activity in HPMECs: dose-dependently inhibited
[10]
  sialidase activity in HLFs: dose-dependently inhibited
[11]
  sialidase activity in SAECs: dose-dependently inhibited
[5]; [12]
  total lung sialidase activity: reduced
